ChEMBL document CHEMBL1142810, “Discovery of a potent and selective 5-ht5A receptor antagonist by high-throughput chemistry” (Bioorg Med Chem Lett, 2005)
Blank lines part the entries; values can stand above or below the compound they belong to.

Assays:
[1] = molecular target: 5-hydroxytryptamine receptor 1D (Homo sapiens, UniProt P28221); test: Binding affinity towards human 5-hydroxytryptamine receptor 1D expressed in CHO cells using the radioligand [3H]5-HT; type: cell-based
D(3) dopamine receptor = D(3) dopamine receptor (Homo sapiens, UniProt P35462); test: Binding affinity towards human dopamine receptor D3 expressed in CHO cells using the radioligand [125I]iodosulpiride; type: cell-based
[2] = molecular target: 5-hydroxytryptamine receptor 1E (Homo sapiens, UniProt P28566); test: Binding affinity towards human 5-hydroxytryptamine receptor 1E expressed in HEK 293 cells using the radioligand [3H]5-HT; type: cell-based, HEK293
[3] = molecular target: 5-hydroxytryptamine receptor 7 (Homo sapiens, UniProt P34969); test: Binding affinity towards human 5-hydroxytryptamine receptor 7 expressed in HEK 293 cells using the radioligand [3H]5-CT; type: cell-based, HEK293
D(4) dopamine receptor = molecular target: T1, D(4) dopamine receptor (Homo sapiens, UniProt P21917); test: Binding affinity towards human dopamine receptor D4 expressed in CHO cells using the radioligand [125I]iodosulpiride; type: cell-based
T1 sequence (P21917 whole entry): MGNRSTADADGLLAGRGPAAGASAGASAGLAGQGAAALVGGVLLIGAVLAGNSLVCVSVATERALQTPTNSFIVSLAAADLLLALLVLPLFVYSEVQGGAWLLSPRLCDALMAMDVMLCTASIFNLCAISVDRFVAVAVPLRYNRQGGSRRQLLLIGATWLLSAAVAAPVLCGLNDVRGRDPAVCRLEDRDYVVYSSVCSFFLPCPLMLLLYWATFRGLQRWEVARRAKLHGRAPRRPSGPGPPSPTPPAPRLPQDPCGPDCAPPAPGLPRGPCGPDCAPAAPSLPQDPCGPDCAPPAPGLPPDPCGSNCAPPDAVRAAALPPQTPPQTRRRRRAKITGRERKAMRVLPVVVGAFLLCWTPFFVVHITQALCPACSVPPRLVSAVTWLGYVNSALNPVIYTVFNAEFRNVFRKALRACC

D(2) dopamine receptor = D(2) dopamine receptor (Homo sapiens, UniProt P14416); test: Binding affinity towards human dopamine receptor D2 expressed in CHO cells using the radioligand [125I]iodosulpiride; type: cell-based
[4] = molecular target: T2, Alpha-1B adrenergic receptor (Homo sapiens, UniProt P35368); test: Binding affinity towards human alpha-1B-adrenergic receptor expressed in CHO cells using the radioligand [3H]prazosin; type: cell-based
T2 sequence (P35368 whole entry): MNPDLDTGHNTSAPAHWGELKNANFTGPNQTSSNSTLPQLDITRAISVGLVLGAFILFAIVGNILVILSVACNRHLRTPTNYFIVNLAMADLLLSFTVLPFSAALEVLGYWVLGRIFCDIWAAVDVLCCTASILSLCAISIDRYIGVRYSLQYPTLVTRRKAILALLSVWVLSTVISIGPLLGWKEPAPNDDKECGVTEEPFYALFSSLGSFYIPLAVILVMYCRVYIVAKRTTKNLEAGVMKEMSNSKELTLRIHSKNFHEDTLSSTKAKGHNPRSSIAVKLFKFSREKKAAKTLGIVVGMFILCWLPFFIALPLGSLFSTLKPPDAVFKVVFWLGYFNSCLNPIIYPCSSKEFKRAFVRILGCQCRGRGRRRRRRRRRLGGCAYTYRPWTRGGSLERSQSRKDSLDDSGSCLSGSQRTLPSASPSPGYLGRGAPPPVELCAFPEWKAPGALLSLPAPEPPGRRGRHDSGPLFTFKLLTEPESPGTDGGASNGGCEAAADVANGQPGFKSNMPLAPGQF

[5] = molecular target: T3, 5-hydroxytryptamine receptor 2C (Homo sapiens, UniProt P28335); test: Binding affinity towards human 5-hydroxytryptamine receptor 2C expressed in HEK 293 cells using the radioligand [3H]mesulergine; type: cell-based, HEK293
T3 sequence (P28335 whole entry): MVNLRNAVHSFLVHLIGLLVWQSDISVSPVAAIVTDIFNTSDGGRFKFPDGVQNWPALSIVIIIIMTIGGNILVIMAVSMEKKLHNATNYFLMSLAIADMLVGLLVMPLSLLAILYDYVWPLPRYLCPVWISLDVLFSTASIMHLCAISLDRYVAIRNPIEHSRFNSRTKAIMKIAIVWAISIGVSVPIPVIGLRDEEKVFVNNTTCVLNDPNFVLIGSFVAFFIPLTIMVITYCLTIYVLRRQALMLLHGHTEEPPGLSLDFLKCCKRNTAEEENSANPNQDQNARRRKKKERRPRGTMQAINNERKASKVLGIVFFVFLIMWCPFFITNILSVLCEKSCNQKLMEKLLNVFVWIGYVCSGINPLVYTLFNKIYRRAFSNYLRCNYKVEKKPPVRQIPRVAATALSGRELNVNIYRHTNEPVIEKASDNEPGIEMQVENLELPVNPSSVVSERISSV

[6] = molecular target: T4, 5-hydroxytryptamine receptor 1A (Homo sapiens, UniProt P08908); test: Binding affinity towards human 5-hydroxytryptamine receptor 1A expressed in HEK 293 cells using the radioligand [3H]8-OH-DPAT; type: cell-based, HEK293
T4 sequence (P08908 whole entry): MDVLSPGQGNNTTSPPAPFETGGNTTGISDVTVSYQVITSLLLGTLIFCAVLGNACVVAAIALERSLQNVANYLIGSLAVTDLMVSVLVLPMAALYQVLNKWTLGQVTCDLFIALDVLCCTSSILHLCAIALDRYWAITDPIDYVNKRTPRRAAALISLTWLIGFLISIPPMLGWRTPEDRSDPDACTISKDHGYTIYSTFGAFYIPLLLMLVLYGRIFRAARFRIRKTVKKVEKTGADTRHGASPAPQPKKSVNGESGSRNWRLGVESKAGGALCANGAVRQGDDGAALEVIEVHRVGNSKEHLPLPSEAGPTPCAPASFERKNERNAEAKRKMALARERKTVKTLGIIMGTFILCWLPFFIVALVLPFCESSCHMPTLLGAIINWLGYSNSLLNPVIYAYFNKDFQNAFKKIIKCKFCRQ

[7] = molecular target: 5-hydroxytryptamine receptor 6 (Homo sapiens, UniProt P50406); test: Binding affinity towards human 5-hydroxytryptamine receptor 6 expressed in HeLa cells using the radioligand [3H]LSD; type: cell-based
[8] = molecular target: T5, 5-hydroxytryptamine receptor 5A (Homo sapiens, UniProt P47898); test: Binding affinity towards human 5-hydroxytryptamine receptor 5A expressed in CHO cells using the radioligand [3H]LSD; type: cell-based
[9] = molecular target: 5-hydroxytryptamine receptor 1B (Homo sapiens, UniProt P28222); test: Binding affinity towards human 5-hydroxytryptamine receptor 1B expressed in CHO cells using the radioligand [3H]5-HT; type: cell-based
[10] = molecular target: 5-hydroxytryptamine receptor 2B (Homo sapiens, UniProt P41595); test: Binding affinity towards human 5-hydroxytryptamine receptor 2B expressed in HEK 293 cells using the radioligand [3H]5-HT; type: cell-based, HEK293
[11] = molecular target: 5-hydroxytryptamine receptor 2A (Homo sapiens, UniProt P28223); test: Binding affinity towards human 5-hydroxytryptamine receptor 2A expressed in HEK 293 cells using the radioligand [3H]ketanserin; type: cell-based, HEK293
[12] = molecular target: T6, 5-hydroxytryptamine receptor 1F (Homo sapiens, UniProt P30939); test: Binding affinity towards human 5-hydroxytryptamine receptor 1F expressed in HEK 293 cells using the radioligand [3H]5-HT; type: cell-based, HEK293
T6 sequence (P30939 whole entry): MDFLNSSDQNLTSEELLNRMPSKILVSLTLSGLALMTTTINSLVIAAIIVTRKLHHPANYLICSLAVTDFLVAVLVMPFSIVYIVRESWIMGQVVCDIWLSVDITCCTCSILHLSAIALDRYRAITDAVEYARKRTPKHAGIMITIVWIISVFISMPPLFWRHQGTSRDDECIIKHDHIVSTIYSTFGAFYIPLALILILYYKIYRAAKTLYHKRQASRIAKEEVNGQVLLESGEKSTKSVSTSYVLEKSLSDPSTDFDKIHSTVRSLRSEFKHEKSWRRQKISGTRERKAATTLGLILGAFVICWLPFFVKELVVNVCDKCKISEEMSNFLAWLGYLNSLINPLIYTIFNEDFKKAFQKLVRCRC

[13] = molecular target: T5, 5-hydroxytryptamine receptor 5A; test: 5-CT-induced stimulation of [35S]GTP-gamma-S, binding to 5-Hydroxytryptamine receptor 5A expressed in HEK 293 cells with compound at 1 uM; type: functional, cell-based; conditions: HEK293

T5 sequence (P47898 whole entry): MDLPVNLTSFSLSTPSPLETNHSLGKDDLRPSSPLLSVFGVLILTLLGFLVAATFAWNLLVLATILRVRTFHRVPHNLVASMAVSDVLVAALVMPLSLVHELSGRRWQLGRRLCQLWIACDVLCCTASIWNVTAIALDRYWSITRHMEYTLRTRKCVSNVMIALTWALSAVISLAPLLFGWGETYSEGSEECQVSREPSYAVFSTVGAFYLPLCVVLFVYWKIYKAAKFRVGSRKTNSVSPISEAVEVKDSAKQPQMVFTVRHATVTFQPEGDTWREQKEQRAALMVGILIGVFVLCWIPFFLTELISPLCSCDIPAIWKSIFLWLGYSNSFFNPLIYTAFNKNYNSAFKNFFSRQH
Sequence of D(3) dopamine receptor (P35462 whole entry): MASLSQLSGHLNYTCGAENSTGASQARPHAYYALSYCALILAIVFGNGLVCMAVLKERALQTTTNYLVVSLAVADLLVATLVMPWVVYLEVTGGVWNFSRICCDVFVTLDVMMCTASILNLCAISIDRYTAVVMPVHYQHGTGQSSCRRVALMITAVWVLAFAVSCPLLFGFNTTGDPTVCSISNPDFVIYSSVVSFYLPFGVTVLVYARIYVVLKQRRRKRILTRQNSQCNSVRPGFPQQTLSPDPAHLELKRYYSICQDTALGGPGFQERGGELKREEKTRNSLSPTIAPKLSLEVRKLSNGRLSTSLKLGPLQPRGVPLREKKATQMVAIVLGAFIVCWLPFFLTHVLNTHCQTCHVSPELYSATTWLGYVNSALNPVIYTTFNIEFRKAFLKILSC
Sequence of 5-hydroxytryptamine receptor 7 (P34969 whole entry): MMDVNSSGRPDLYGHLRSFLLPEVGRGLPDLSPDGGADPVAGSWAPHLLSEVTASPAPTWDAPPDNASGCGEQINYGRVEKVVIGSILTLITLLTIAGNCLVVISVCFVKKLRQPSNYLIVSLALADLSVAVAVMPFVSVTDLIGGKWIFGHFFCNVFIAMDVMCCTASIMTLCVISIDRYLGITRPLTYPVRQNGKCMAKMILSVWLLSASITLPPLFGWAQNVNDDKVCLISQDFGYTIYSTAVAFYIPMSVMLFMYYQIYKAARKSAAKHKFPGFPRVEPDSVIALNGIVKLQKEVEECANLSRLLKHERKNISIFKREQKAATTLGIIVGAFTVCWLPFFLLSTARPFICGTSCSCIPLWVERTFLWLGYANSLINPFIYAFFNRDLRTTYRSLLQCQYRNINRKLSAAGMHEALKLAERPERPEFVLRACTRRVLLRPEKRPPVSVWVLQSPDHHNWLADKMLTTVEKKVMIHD
Sequence of 5-hydroxytryptamine receptor 1B (P28222 whole entry): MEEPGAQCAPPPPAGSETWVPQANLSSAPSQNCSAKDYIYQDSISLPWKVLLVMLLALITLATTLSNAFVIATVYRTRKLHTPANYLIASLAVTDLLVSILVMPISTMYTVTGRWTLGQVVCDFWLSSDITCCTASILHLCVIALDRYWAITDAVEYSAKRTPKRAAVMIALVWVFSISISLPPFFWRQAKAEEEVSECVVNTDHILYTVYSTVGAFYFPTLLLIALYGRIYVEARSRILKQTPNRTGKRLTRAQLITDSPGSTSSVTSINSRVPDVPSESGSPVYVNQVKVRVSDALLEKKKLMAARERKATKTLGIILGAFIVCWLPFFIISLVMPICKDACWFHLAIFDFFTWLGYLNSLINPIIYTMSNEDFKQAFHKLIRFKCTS
Sequence of D(2) dopamine receptor (P14416 whole entry): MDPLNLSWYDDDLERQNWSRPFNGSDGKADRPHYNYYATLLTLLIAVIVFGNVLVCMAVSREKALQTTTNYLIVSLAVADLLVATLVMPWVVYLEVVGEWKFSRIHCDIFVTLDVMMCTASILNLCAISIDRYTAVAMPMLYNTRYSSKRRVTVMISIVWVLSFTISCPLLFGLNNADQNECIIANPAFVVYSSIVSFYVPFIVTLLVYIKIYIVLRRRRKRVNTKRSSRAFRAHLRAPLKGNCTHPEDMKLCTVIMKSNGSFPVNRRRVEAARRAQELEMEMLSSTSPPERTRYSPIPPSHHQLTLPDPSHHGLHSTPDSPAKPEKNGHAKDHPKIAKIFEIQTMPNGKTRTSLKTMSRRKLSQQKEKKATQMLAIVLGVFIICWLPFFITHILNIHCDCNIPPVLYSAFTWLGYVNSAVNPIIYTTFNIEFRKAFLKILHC
Sequence of 5-hydroxytryptamine receptor 2A (P28223 whole entry): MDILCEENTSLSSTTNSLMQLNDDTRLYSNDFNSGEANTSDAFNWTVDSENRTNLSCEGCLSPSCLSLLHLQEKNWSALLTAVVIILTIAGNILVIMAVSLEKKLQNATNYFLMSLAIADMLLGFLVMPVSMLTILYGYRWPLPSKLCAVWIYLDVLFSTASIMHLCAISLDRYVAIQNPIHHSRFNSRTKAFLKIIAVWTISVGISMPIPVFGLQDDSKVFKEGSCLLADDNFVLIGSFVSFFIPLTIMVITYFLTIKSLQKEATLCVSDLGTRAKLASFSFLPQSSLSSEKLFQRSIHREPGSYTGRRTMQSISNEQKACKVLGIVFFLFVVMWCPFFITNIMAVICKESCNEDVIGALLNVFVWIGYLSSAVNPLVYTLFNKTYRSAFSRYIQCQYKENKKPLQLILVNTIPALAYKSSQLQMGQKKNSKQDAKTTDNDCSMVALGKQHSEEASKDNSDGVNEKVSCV
Sequence of 5-hydroxytryptamine receptor 6 (P50406 whole entry): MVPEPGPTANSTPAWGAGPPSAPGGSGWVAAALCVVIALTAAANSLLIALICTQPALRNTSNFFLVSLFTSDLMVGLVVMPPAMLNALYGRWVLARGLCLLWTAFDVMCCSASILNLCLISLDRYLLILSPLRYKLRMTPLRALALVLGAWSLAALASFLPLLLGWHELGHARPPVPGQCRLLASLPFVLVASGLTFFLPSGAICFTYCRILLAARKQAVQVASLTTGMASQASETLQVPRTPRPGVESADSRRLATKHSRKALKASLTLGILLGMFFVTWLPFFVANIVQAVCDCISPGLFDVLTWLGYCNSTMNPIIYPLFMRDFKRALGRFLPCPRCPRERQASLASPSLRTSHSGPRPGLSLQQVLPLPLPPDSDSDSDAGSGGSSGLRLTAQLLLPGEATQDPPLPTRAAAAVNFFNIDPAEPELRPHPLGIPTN
Sequence of 5-hydroxytryptamine receptor 1D (P28221 whole entry): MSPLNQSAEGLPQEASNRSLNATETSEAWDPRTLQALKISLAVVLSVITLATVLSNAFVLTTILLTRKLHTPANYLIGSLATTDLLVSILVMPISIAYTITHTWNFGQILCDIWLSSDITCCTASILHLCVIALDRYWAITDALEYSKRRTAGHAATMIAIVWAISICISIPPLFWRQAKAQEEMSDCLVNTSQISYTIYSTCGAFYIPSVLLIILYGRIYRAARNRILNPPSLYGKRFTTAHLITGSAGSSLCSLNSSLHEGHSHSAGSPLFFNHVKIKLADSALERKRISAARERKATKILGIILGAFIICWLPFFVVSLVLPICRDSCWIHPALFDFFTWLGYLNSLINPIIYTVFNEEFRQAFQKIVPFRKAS
Sequence of 5-hydroxytryptamine receptor 2B (P41595 whole entry): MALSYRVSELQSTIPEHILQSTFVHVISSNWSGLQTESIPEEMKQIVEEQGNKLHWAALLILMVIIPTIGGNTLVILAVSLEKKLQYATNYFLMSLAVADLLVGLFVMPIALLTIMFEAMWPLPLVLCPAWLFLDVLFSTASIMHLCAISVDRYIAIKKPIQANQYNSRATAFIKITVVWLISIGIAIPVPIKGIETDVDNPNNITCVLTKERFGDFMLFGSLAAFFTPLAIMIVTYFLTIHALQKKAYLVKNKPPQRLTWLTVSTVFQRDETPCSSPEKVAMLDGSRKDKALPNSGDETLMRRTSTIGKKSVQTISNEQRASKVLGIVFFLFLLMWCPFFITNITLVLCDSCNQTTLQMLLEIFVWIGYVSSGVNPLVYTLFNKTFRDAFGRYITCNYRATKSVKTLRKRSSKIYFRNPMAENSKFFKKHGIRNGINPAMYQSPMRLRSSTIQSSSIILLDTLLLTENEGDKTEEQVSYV
Sequence of 5-hydroxytryptamine receptor 1E (P28566 whole entry): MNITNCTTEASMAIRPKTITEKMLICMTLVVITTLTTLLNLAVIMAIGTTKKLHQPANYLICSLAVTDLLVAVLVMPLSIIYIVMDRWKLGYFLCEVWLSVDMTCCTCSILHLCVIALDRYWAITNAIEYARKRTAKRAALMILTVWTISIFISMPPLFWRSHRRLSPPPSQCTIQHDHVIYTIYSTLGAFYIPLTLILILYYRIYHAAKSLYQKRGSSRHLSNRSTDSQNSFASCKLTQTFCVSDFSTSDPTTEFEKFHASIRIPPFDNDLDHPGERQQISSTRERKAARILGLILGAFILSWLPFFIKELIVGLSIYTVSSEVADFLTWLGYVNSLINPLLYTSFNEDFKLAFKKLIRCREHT

- Ki [1]: 1260 nM
- Ki (D(3) dopamine receptor): 1580 nM
- Ki [2]: > 10000 nM
- Ki [3]: 1260 nM
- Ki (D(4) dopamine receptor): 1580 nM
- Ki (D(2) dopamine receptor): 1260 nM
- Ki [4]: 316 nM
- Ki [5]: 1000 nM
- Ki [6]: 1000 nM
- Ki [7]: > 2000 nM
- Ki [8]: 50.1 nM
- Ki [9]: 631 nM
- Ki [10]: 2000 nM
- Ki [11]: 794 nM
- Ki [12]: > 1000 nM
Compound: O=C(/C=C/c1ccccc1)N(Cc1ccc(-c2ccc(CNCCc3ccccc3)cc2)cc1)Cc1cccnc1

- Ki [8]: 126 nM
Compound: c1ccc(CCNCc2ccc(-c3ccc(CNC4CCN(Cc5ccccc5)CC4)cc3)cc2)cc1

- Ki [8]: 31.6 nM
Compound: CN(C)CCN(Cc1ccc(-c2ccc(CNCCc3ccccn3)cc2)cc1)C(=O)CCC1CCCC1

- Ki [8]: 200 nM
Compound: O=C(c1ccc2c(c1)OCO2)N(Cc1ccc(-c2ccc(CNCCc3ccccc3)cc2)cc1)Cc1cccnc1

- pKb [13]: 8
Compound: CN(C)CCN(Cc1ccc(-c2ccc(CNCCc3ccccc3)cc2)cc1)C(=O)CCC1CCCC1

- Ki [8]: 6310 nM
Compound: COCCNCc1ccc(-c2ccc(CN(Cc3cccnc3)C(=O)/C=C/c3ccccc3)cc2)cc1

- Ki [8]: 251 nM
Compound: CN(C)CCN(Cc1ccc(-c2ccc(CNC3Cc4ccccc4C3)cc2)cc1)C(=O)CCC1CCCC1

- Ki [8]: 31.6 nM
Compound: CN(C)CCN(Cc1ccc(-c2ccc(CNCCc3ccccc3)cc2)nc1)C(=O)CCC1CCCC1

- Ki [8]: 5.01 nM
Compound: CN(C)CCN(Cc1ccc(-c2ccc(CNCCc3ccccc3)cn2)cc1)C(=O)/C=C/c1ccccc1

- Ki [8]: 251 nM
Compound: CN(C)CCN(Cc1ccc(-c2ccc(CNCCc3ccccc3)cc2)cc1)S(=O)(=O)/C=C/c1ccccc1

- Ki [8]: 3160 nM
Compound: CN(C)CCN(Cc1ccc(-c2ccc(CN)cc2)cc1)C(=O)CCC1CCCC1

- Ki [8]: 398 nM
Compound: CN(C)CCN(Cc1ccc(-c2ccc(CNCCc3ccccc3)cc2)cc1)C(=O)Nc1ccccc1
